{"source": "patent US6451576B1", "about": "“Sesquiterpene synthases from grand fir (Abies grandis), and methods of use” (Washington State University Research Foundation, priority 1998, dated 2002)", "molecules": {"B1": {"name": "γ-humulene synthase (SEQ ID No:24) (Abies grandis) (protein)", "chain": "MAQISESVSPSTDLKSTESSITSNRHGNMWEDDRIQSLNSPYGAPAYQERSEKLIEEIKLLFLSDMDDSCNDSDRDLIKRLEIVDTVECLGIDRHFQPEIKLALDYVYRCWNERGIGEGSRDSLKKDLNATALGFRALRLHRYNVSSGVLENFRDDNGQFFCGSTVEEEGAEAYNKHVRCMLSLSRASNILFPGEKVMEEAKAFTTNYLKKVLAGREATHVDESLLGEVKYALEFPWHCSVQRWEARSFIEIFGQIDSELKSNLSKKMLELAKLDFNILQCTHQKELQIISRWFADSSIASLNFYRKCYVEFYFWMAAAISEPEFSGSRVAFTKIAILMTMLDDLYDTHGTLDQLKIFTEGVRRWDVSLVEGLPDFMKIAFEFWLKTSNELIAEAVKAQGQDMAAYIRKNAWERYLEAYLQDAEWIATGHVPTFDEYLNNGTPNTGMCVLNLIPLLLMGEHLPIDILEQIFLPSRFHHLIELASRLVDDARDFQAEKDHGDLSCIECYLKDHPESTVEDALNHVNGLLGNCLLEMNWKFLKKQDSVPLSCKKYSFHVLARSIQFMYNQGDGFSISNKVIKDQVQKVLIVPVPI", "notes": "For further subcloning of the amplified, full-length cDNA into the pSBETa vector for high-level expression, the pGAG5 insert was amplified; made in house; host or cells: E. coli XL1-Blue/pGAG5 or E. coli BL21(DE3)/pSBAG5"}, "B2": {"name": "δ-selinene synthase (SEQ ID No:20) (Abies grandis) (protein)", "chain": "MAEISESSIPRRTGNHHGNVWDDDLIHSLNSPYGAPAYYELLQKLIQEIKHLLLTEMEMDDGDHDLIKRLQIVDTLECLGIDRHFEHEIQTAALDYVYRWWNEKGIGEGSRDSFSKDLNATALGFRALRLHRYNVSSGVLKNFKDENGKFFCNFTGEEGRGDKQVRSMLSLLRASEISFPGEKVMEEAKAFTREYLNQVLAGHGDVTDVDQSLLREVKYALEFPWHCSVPRWEARSFLEIYGHNHSWLKSNINQKMLKLAKLDFNILQCKHHKEIQFITRWWRDSGISQLNFYRKRHVEYYSWVVMCIFEPEFSESRIAFAKTAILCTVLDDLYDTHATLHEIKIMTEGVRRWDLSLTDDLPDYIKIAFQFFFNTVNELIVEIVKRQGRDMTTIVKDCWKRYIESYLQEAEWIATGHIPTFNEYIKNGMASSGMCILNLNPLLLLDKLLPDNILEQIHSPSKILDLLELTGRIADDLKDFEDEKERGEMASSLQCYMKENPESTVENALNHIKGILNRSLEEFNWEFMKQDSVPMCCKKFTFNIGRGLQFIYKYRDGLYISDKEVKDQIFKILVHQVPMEE", "notes": "made in house; host or cells: E. coli XL1-Blue/pGAG4 or E. coli BL21(DE3)/pSBAG4"}}, "key": {"[1]": {"biological_target": "T1, γ-humulene synthase (SEQ ID No:24) (Abies grandis, UniProt O64405)", "T1 construct": "For further subcloning of the amplified, full-length cDNA into the pSBETa vector for high-level expression, the pGAG5 insert was amplified; made in house; host or cells: E. coli XL1-Blue/pGAG5 or E. coli BL21(DE3)/pSBAG5", "T1 sequence (O64405 1-593)": "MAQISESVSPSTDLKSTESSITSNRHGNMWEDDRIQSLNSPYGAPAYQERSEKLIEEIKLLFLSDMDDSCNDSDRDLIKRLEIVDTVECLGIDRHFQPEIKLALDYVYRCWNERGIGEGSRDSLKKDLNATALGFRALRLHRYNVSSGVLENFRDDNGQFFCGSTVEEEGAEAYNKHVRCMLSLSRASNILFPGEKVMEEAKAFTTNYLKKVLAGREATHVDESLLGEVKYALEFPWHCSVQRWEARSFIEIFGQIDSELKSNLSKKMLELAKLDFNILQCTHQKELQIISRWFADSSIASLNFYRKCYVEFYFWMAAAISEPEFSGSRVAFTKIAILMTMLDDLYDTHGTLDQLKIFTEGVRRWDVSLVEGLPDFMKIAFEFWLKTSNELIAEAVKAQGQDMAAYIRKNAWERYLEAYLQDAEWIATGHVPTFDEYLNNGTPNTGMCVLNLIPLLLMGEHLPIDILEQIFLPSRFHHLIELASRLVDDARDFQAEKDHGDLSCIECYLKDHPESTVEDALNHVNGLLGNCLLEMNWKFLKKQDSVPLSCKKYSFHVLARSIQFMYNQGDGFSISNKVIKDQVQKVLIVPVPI", "experiment": "Kinetic parameters, metal ion requirement and substrate specificity of recombinant γ-humulene synthase", "type": "biochemical", "conditions": "for monoterpene product formed from geranyl diphosphate: GLC-MS; for Km: read-out: Km value for divalent metal ion", "procedure": "(§1) The assay for recombinant sesquiterpene synthase (cyclase) activity was performed in 1 ml of buffer (extraction buffer without MnCl2 or the polymeric adsorbents) containing 3.5 μM [1-^3H]farnesyl diphosphate and the total protein extracted from a 5 ml bacterial culture to produce 10^5-10^6 dpm of product in 2 h at 31° C. The incubation mixture was overlaid with 1 ml pentane to trap volatile products. After incubation, the reaction mixture was extracted with pentane (3×1 ml) and the combined extract was passed through a MgSO4-silica gel column to provide the terpene hydrocarbon fractions as before. The columns were subsequently eluted with 3×1 ml of ether to collect any oxygenated products, and an aliquot of each fraction was taken for liquid scintillation counting to determine conversion rate. The monoterpene synthase and diterpene synthase activity assays were similarly performed as described in detail elsewhere (LaFever, R. E., et al., (1994) Arch. Biochem. Biophys. 313, 139-149; Bohlmann, J., et al., (1997) J. Biol. Chem. 272, 21784-21792; Lewinsohn, E., et al., (1991) Plant Physiol. 96, 38-43).\n(§2) The substrate specificity and other kinetic. parameters of γ-humulene synthase (SEQ ID No:24) and δ-selinene synthase (SEQ ID No:20) were investigated in order to confirm the identification and classification of these enzymes. […] Neither of these sesquiterpene synthases requires K^+ or other monovalent cation for activity.\n(§3) Substrate specificity of δ-selinene synthase (SEQ ID No:20) and γ-humulene synthase (SEQ ID No:24) was evaluated by comparing farnesyl diphosphate (C15) to geranyl diphosphate (C10) and geranylgeranyl diphosphate (C20) at saturation as precursors of the respective terpene olefins. […] The identities of the monoterpene products produced by the sesquiterpene synthases were determined by GLC-MS and are set forth in FIG. 4."}, "[2]": {"biological_target": "T2, δ-selinene synthase (SEQ ID No:20) (Abies grandis, UniProt O64404)", "T2 construct": "made in house; host or cells: E. coli XL1-Blue/pGAG4 or E. coli BL21(DE3)/pSBAG4", "T2 sequence (O64404 1-581)": "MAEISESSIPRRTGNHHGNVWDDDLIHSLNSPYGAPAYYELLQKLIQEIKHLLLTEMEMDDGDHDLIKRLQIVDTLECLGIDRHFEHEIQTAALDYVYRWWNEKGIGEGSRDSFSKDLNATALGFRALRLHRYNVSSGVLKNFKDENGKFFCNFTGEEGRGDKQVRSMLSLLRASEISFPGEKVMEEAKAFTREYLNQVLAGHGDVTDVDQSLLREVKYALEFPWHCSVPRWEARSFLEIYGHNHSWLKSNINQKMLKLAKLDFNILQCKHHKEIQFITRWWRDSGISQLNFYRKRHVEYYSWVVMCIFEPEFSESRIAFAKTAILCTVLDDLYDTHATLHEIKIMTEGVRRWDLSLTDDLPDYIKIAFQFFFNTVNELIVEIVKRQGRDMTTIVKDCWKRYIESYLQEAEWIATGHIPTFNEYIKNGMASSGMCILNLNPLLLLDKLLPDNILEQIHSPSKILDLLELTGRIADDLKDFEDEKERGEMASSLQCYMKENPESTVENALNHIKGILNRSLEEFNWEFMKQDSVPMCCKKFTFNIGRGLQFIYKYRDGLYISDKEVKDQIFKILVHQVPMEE", "experiment": "Kinetic parameters, metal ion requirement and substrate specificity of recombinant δ-selinene synthase", "type": "biochemical", "conditions": "for Km: read-out: Km value for divalent metal ion", "procedure": "as §1, §2, §3"}, "[3]": {"system": "insect larvae", "conditions": "present in paper made from trees of the genus Abies; cited from earlier work"}, "[4]": {"system": "partially purified inducible sesquiterpene synthases", "experiment": "Sesquiterpene synthase assay with partially purified extract of wounded grand fir stems", "type": "biochemical, Abies grandis", "conditions": "partially purified inducible sesquiterpene synthases from wounded stems; read-out: Km value for [1-3H]farnesyl diphosphate", "source_text": "Grand fir saplings in active growth were used as the enzyme source for determination of constitutive terpenoid synthases and of terpenoid synthases which had been induced in wounded stems by a standard wounding protocol (Funk, C., et al., (1994) Plant Physiol. 106, 999-1005). Stems from control saplings and saplings eight days after wounding (usually ten saplings) were harvested by removing the top and lateral growth, and cutting at about 5 cm from the base. The stems were chopped into 5-7 cm segments, frozen in liquid N2 and, following removal of any needles, were ground to a powder in a liquid N2-chilled No. 1 Wiley mill. The frozen powder was added to chilled extraction buffer (5 ml/g fresh tissue weight) consisting of 10 mM dibasic potassium phosphate and 1.8 mM monobasic potassium phosphate (pH 7.3), 140 mM NaCl, 20 mM β-mercaptoethanol, 10 mM MgCl2, 5 mM MnCl2, 10% (v/v) glycerol and 1% (w/v) each of polyvinylpyrrolidone (Mr 40,000) and polyvinylpolypyrrolidone. […]\nLiquid scintillation counting was performed in 10 ml toluene:ethanol (7:3, v/v) containing 0.4% (w/v) Omnifluor (DuPont-NEN) at a ^3H counting efficiency of 43%. Protein concentrations were determined by the method of Bradford (Bradford, M. M. (1976) Anal. Biochem. 72, 248-254) using the Bio-Rad reagent and bovine serum albumin as standard. […]"}, "[5]": {"substrate": "CC(C)=CCC/C(C)=C/CC/C(C)=C/CO[P@@](=O)(O)OP(=O)(O)O", "experiment": "Kinetic parameters, metal ion requirement and substrate specificity of recombinant γ-humulene synthase", "type": "biochemical, Abies grandis", "conditions": "other: γ-humulene synthase; estimated; 31.0 °C", "procedure": "as §1, with “The monoterpene synthase and diterpene synthase activity assays were similarly performed as described in detail elsewhere (LaFever, R. E., et al., (1994) Arch. Biochem. Biophys. 313, 139-149; Bohlmann, J., et al., (1997) J. Biol. Chem. 272, 21784-21792; Lewinsohn, E., et al., (1991) Plant Physiol. 96, 38-43).” left out\nas §3"}, "[6]": {"substrate": "CC(C)=CCC/C(C)=C/CC/C(C)=C/CO[P@@](=O)(O)OP(=O)(O)O", "experiment": "Kinetic parameters, metal ion requirement and substrate specificity of recombinant δ-selinene synthase", "type": "biochemical, Abies grandis", "conditions": "other: δ-selinene synthase; estimated; 31.0 °C", "procedure": "as §1, with “The monoterpene synthase and diterpene synthase activity assays were similarly performed as described in detail elsewhere (LaFever, R. E., et al., (1994) Arch. Biochem. Biophys. 313, 139-149; Bohlmann, J., et al., (1997) J. Biol. Chem. 272, 21784-21792; Lewinsohn, E., et al., (1991) Plant Physiol. 96, 38-43).” left out\nas §3"}}, "data": [{"molecule": "C=C/C(C)=C/CC=C(C)C", "note": "[E-ocimene]", "values": [{"measurement": "monoterpene product formed from geranyl diphosphate", "setting": "[1]", "value": "not detectable"}, {"measurement": "contribution to monoterpene products formed from geranyl diphosphate", "setting": "[2]; GLC-MS", "value": 22.4, "unit": "%"}]}, {"molecule": "COC(=O)C1=CC[C@H]([C@H](C)CC(=O)CC(C)C)CC1", "note": "[Juvabione]", "values": [{"measurement": "effect on maturation of insect larvae", "setting": "[3]", "value": "inhibits maturation of insect larvae"}]}, {"molecule": "C=C(C)[C@H]1CC=C(C)CC1", "note": "[Limonene]", "values": [{"measurement": "monoterpene product formed from geranyl diphosphate", "setting": "[1]", "value": "principal monoterpene product"}, {"measurement": "monoterpene product formed from geranyl diphosphate", "setting": "[2]; GLC-MS", "value": "principal monoterpene product"}]}, {"molecule": "[Mg+2]", "note": "[Mg^2+]", "values": [{"measurement": "metal ion utilization in the cyclization reaction", "setting": "[1]", "value": "comparable velocities"}, {"measurement": "Km", "setting": "[1]", "value": "~125", "unit": "µM"}, {"measurement": "Km", "setting": "[2]", "value": "~125", "unit": "µM"}]}, {"molecule": "[Mn+2]", "note": "[Mn^2+]", "values": [{"measurement": "metal ion utilization in the cyclization reaction", "setting": "[1]", "value": "comparable velocities"}, {"measurement": "Km", "setting": "[1]", "value": "~25", "unit": "µM"}, {"measurement": "maximum rate relative to that with Mg2+ at saturation", "setting": "[2]", "value": "less than 10%"}, {"measurement": "Km", "setting": "[2]", "value": "~25", "unit": "µM"}]}, {"molecule": "CC(C)=CCC/C(C)=C/CC/C(C)=C/CO[P@@](=O)(O)OP(=O)(O)O", "note": "[[1-^3H]farnesyl diphosphate]", "values": [{"measurement": "Km", "setting": "[4]", "value": "~400", "unit": "nM"}]}, {"molecule": "C=C1C2CCC(C2)C1(C)C", "note": "(centres unmarked) [camphene]", "values": [{"measurement": "monoterpene product formed from geranyl diphosphate", "setting": "[1]", "value": "detectable amounts"}, {"measurement": "monoterpene product formed from geranyl diphosphate", "setting": "[2]; GLC-MS", "value": "does not produce"}]}, {"molecule": "B1", "values": [{"measurement": "Km", "setting": "[5]", "value": 4.5, "unit": "µM"}]}, {"molecule": "B2", "values": [{"measurement": "Km", "setting": "[6]", "value": 1.5, "unit": "µM"}]}]}
